In the supplement of paper PMC10883282:

What was measured:
Assay in all cases: standardised AUC of viability dose-response curve (72 h) (fraction (0-1)); higher = less growth inhibition (more resistant)
SK-LMS-1 = test system: SK-LMS-1
How it was run: (§1)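 In 384-well plates, sarcoma cell lines were exposed for 72 h, in triplicate, to 2.5 µl of a 1:3 compound dilution series whose compound-plate concentrations ran from 10 mM to 0.0002 mM. Four-parameter log-logistic models were fitted per drug and cell line to ATPLite viability, scaled 1 (full) to 0 (none). From these fits, a modified drexplorer computeAUC gave the standardised area under the curve in log-dose space. Here 1 marks no response and 0 full response.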

SW684 = test system: SW684
How it was run: as §1

A204 = test system: A204
How it was run: as §1

MES-SA = test system: MES-SA
How it was run: as §1

RD = test system: RD
How it was run: as §1

SYO-1 = test system: SYO-1
How it was run: as §1

SW982 = test system: SW982
How it was run: as §1

KHOS-NP = test system: KHOS-NP
How it was run: as §1

RD-ES = test system: RD-ES
How it was run: as §1

SW1353 = test system: SW1353
How it was run: as §1

HS729 = test system: HS729
How it was run: as §1

HT1080 = test system: HT1080
How it was run: as §1

VA-ES-BJ = test system: VA-ES-BJ
How it was run: as §1

SK-ES-1 = test system: SK-ES-1
How it was run: as §1

KHOS-240S = test system: KHOS-240S
How it was run: as §1

SW872 = test system: SW872
How it was run: as §1

G401 = test system: G401
How it was run: as §1

Row | Structure (SMILES) | standardised AUC (SK-LMS-1) | standardised AUC (SW684) | standardised AUC (A204) | standardised AUC (MES-SA) | standardised AUC (RD) | standardised AUC (SYO-1) | standardised AUC (SW982) | standardised AUC (KHOS-NP) | standardised AUC (RD-ES) | standardised AUC (SW1353) | standardised AUC (HS729) | standardised AUC (HT1080) | standardised AUC (VA-ES-BJ) | standardised AUC (SK-ES-1) | standardised AUC (KHOS-240S) | standardised AUC (SW872) | standardised AUC (G401)
1 | CCCS(=O)(=O)N[C@H]1C[C@@H](N(C)c2ncnc3[nH]ccc23)C1 [ABROCITINIB] | 0.997 | 0.989 | 0.984 | 0.996 | 0.995 | 1 | 0.997 | 0.994 | 1 | 1 | 0.982 | 1 | 1 | 0.985 | 0.989 | 0.991 | 0.985
2 | CO[C@@H]1[C@H](N(C)C(=O)c2ccccc2)C[C@H]2O[C@]1(C)n1c3ccccc3c3c4c(c5c6ccccc6n2c5c31)C(=O)NC4 [MIDOSTAURIN] | 0.773 | 0.835 | 0.715 | 0.731 | 0.81 | 0.642 | 0.709 | 0.812 | 0.764 | 0.733 | 0.796 | 0.8 | 0.785 | 0.689 | 0.709 | 0.757 | 0.778
3 | COc1cc2nccc(Oc3ccc(NC(=O)NC4CC4)c(Cl)c3)c2cc1C(N)=O [LENVATINIB] | 0.984 | 0.992 | 0.587 | 0.911 | 0.999 | 0.701 | 0.966 | 1 | 0.937 | 0.914 | 0.866 | 0.995 | 1 | 0.898 | 0.888 | 0.978 | 0.845
4 | C1=N/C2=N/c3ccc(OCCN4CCCC4)c(c3)COC/C=C/COCc3cccc(c3)C(=C1)N2 [PACRITINIB] | 0.897 | 0.758 | 0.736 | 0.787 | 0.781 | 0.747 | 0.733 | 0.898 | 0.792 | 0.836 | 0.855 | 0.853 | 0.753 | 0.714 | 0.811 | 0.786 | 0.793
5 | CN(C)C[C@@H]1CCn2cc(c3ccccc32)C2=C(C(=O)NC2=O)c2cn(c3ccccc23)CCO1 [RUBOXISTAURIN] | 0.929 | 0.991 | 0.926 | 0.951 | 0.99 | 0.861 | 0.947 | 0.99 | 0.945 | 0.947 | 0.969 | 0.995 | 0.946 | 0.911 | 0.99 | 0.953 | 0.954
6 | C[C@@H]1COC(Nc2ccc3ncnc(Nc4ccc(OCc5nccs5)c(Cl)c4)c3c2)=N1 [VARLITINIB] | 0.987 | 0.994 | 0.918 | 0.954 | 1 | 0.97 | 0.975 | 0.992 | 0.989 | 0.928 | 0.955 | 0.974 | 0.994 | 0.97 | 0.975 | 0.962 | 0.953
7 | CO[C@H]1C[C@@H]2CC[C@@H](C)[C@@](O)(O2)C(=O)C(=O)N2CCCC[C@H]2C(=O)O[C@H]([C@H](C)C[C@@H]2CC[C@@H](O)[C@H](OC)C2)CC(=O)[C@H](C)/C=C(\C)[C@@H](O)[C@@H](OC)C(=O)[C@H](C)C[C@H](C)/C=C/C=C/C=C/1C [RAPAMYCIN] | 0.665 | 0.763 | 0.607 | 0.489 | 0.712 | 0.846 | 0.724 | 0.989 | 0.778 | 0.856 | 0.944 | 0.916 | 0.589 | 0.63 | 0.815 | 0.729 | 0.814
8 | N#Cc1ccnc(N2C(=O)CC[C@H]2C(=O)N(c2cncc(F)c2)[C@H](C(=O)NC2CC(F)(F)C2)c2ccccc2Cl)c1 [IVOSIDENIB] | 0.977 | 0.993 | 0.972 | 0.999 | 0.992 | 0.985 | 0.974 | 0.993 | 0.988 | 0.993 | 0.986 | 1 | 0.987 | 0.997 | 0.988 | 1 | 0.981
9 | CCN(c1cc(-c2ccc(CN3CCOCC3)cc2)cc(C(=O)NCc2c(C)cc(C)[nH]c2=O)c1C)C1CCOCC1 [TAZEMETOSTAT] | 0.977 | 0.998 | 0.998 | 0.976 | 0.997 | 0.971 | 0.985 | 0.963 | 0.985 | 0.973 | 0.946 | 0.988 | 1 | 0.96 | 0.971 | 0.986 | 0.989
10 | Cc1ccc(NC(=O)c2ccc(CN3CCN(C)CC3)cc2)cc1Nc1nccc(-c2cccnc2)n1 [IMATINIB] | 0.982 | 0.983 | 0.725 | 0.973 | 0.988 | 0.865 | 0.98 | 0.966 | 0.983 | 0.984 | 0.959 | 0.974 | 0.987 | 0.962 | 0.949 | 0.979 | 0.957
11 | NC(=O)c1cccc2cn(-c3ccc([C@@H]4CCCNC4)cc3)nc12 [NIRAPARIB] | 0.979 | 0.989 | 0.949 | 0.961 | 0.956 | 0.842 | 0.94 | 1 | 0.874 | 0.966 | 0.977 | 0.999 | 0.966 | 0.8 | 0.983 | 1 | 0.971
12 | CCCCCCCCCCCCCCCCCCOP(=O)([O-])OC1CC[N+](C)(C)CC1 [PERIFOSINE] | 0.941 | 0.999 | 0.982 | 0.954 | 0.996 | 0.946 | 0.99 | 0.966 | 0.994 | 0.962 | 0.924 | 0.966 | 0.968 | 0.952 | 0.983 | 0.915 | 0.994
13 | COc1cc2nccc(Oc3ccc(NC(=O)C4(C(=O)Nc5ccc(F)cc5)CC4)cc3)c2cc1OC [CABOZANTINIB] | 0.661 | 0.827 | 0.656 | 0.871 | 0.95 | 0.714 | 0.916 | 0.96 | 0.919 | 0.855 | 0.809 | 0.965 | 0.913 | 0.89 | 0.923 | 0.908 | 0.856
14 | C=CC(=O)Nc1cc(Nc2nccc(-c3cn(C)c4ccccc34)n2)c(OC)cc1N(C)CCN(C)C [OSIMERTINIB] | 0.925 | 0.939 | 0.873 | 0.893 | 0.921 | 0.798 | 0.907 | 0.974 | 0.89 | 0.919 | 0.874 | 0.938 | 0.916 | 0.847 | 0.923 | 0.918 | 0.904
15 | COc1cc2c(Oc3ccc4[nH]c(C)cc4c3F)ccnc2cc1OCC1(N)CC1 [ANLOTINIB] | 0.868 | 0.944 | 0.708 | 0.876 | 0.903 | 0.736 | 0.904 | 0.93 | 0.914 | 0.909 | 0.909 | 0.965 | 0.941 | 0.851 | 0.883 | 0.936 | 0.872
16 | COc1cc(Nc2c(C#N)cnc3cc(OCCCN4CCN(C)CC4)c(OC)cc23)c(Cl)cc1Cl [BOSUTINIB] | 0.932 | 0.883 | 0.93 | 0.861 | 0.895 | 0.909 | 0.795 | 0.87 | 0.856 | 0.895 | 0.906 | 0.917 | 0.85 | 0.78 | 0.851 | 0.848 | 0.932
17 | Cc1c(F)cc(C(=O)NC2CC2)cc1-c1ccc(C(=O)NCC(C)(C)C)cn1 [LOSMAPIMOD] | 0.973 | 0.995 | 0.977 | 0.944 | 0.981 | 0.933 | 0.991 | 0.999 | 0.95 | 0.993 | 0.87 | 0.999 | 0.941 | 0.929 | 0.944 | 0.992 | 0.941
18 | C[C@H]1Oc2cc(cnc2N)-c2c(nn(C)c2C#N)CN(C)C(=O)c2ccc(F)cc21 [LORLATINIB] | 0.952 | 0.983 | 0.959 | 0.951 | 0.926 | 0.895 | 0.887 | 0.957 | 0.932 | 0.928 | 0.871 | 0.977 | 0.941 | 0.963 | 0.953 | 0.861 | 0.96
19 | CN1CCN(CCOc2cc(OC3CCOCC3)c3c(Nc4c(Cl)ccc5c4OCO5)ncnc3c2)CC1 [SARACATINIB] | 0.908 | 0.977 | 0.906 | 0.943 | 0.871 | 0.851 | 0.821 | 0.951 | 0.955 | 0.865 | 0.849 | 0.981 | 0.938 | 0.931 | 0.884 | 0.858 | 0.918
20 | CCN(CCCOc1ccc2c(Nc3cc(CC(=O)Nc4cccc(F)c4)[nH]n3)ncnc2c1)CCOP(=O)(O)O [BARASERTIB] | 0.938 | 0.972 | 0.816 | 0.685 | 0.826 | 0.581 | 0.745 | 1 | 0.5 | 0.915 | 0.928 | 0.925 | 0.8 | 0.4 | 0.856 | 0.94 | 0.869
21 | Cc1ccc(C(=O)OCc2ccc([C@@H](CN)C(=O)Nc3ccc4cnccc4c3)cc2)c(C)c1 [NETARSUDIL] | 0.886 | 0.926 | 0.85 | 0.857 | 0.923 | 0.884 | 0.91 | 0.951 | 0.914 | 0.855 | 0.966 | 0.952 | 0.985 | 0.921 | 0.828 | 0.893 | 0.949
